Assay [1] relates to Pseudoperonospora cubensis. Nature of the assay: cucumber downy mildew, pot test: curative effect.
Experimental: Test plants (cucumber, variety: Sagami hanpaku) were seeded and grown until the one true leaf stage. And then a sporangium suspension of Pseudoperonospora cubensis containing 1×10^3/ml were sprayed on the back side of the leaves of test plants for inoculation and then the plants were put for 16 hours in an inoculation chamber (20° C. to 23° C.) to promote disease. For a curative test, the inoculated plants as described above were used.
D-Tagatose was diluted to 5%, 1% and 0.5% with distilled water and then 10 ml of the dilution was sprayed on the test plant. Seven days after the spraying of D-tagatose the disease severity of the test plants was observed and the effectiveness of test sample was judged. Tests were carried out using two plants for each test set and the disease severity of the test plants was judged. The control value was calculated from the degree of disease severity as in Example 1.
Another assay has as its system Phytophthora infestans. Type of assay: in vivo. The conditions noted are these: inoculated 3 days after spraying.
In assay [2] the test system is Pseudoperonospora cubensis. The conditions noted are these: 5 ml soil drench, inoculated 5 days after drenching.
Experimental: Test plants (cucumber, variety: Sagami hanpaku) were seeded and grown until the one true leaf stage. D-Tagatose was diluted to 5% and 1% with distilled water and then 5 ml of the dilution was drenched into the soil of the pot. Five days after drenching, a sporangium suspension of Pseudoperonospora cubensis containing 1×10^3/ml were noculated by spraying on the test plants and then put them for 16 hours in an inoculation chamber (20° C. to 23° C.) to promote disease. Seven days after inoculation the disease severity of the test plants was observed and the effectiveness of test sample was judged. Tests were carried out using two plants for each test set and the disease severity of the test plants was judged. The preventive value was calculated from the degree of disease severity as in Example 1.
The test system of a further assay is Pythium glaminicola. The conditions noted are these: 10 ml soil drench, from percentage of onset area after 2 weeks.
For assay [3], the system named is Pseudoperonospora cubensis. Nature of the assay: cucumber downy mildew, pot test: preventive effect. The conditions noted are these: for Preventive value (3 DAS): inoculated 3 days after spraying; for Preventive value (5 DAS): inoculated 5 days after spraying.
Experimental: Test plants (cucumber, variety: Sagami hanpaku) were seeded and grown until the one true leaf stage. D-Tagatose was diluted to 5%, 1% and 0.5% with distilled water and then 10 ml of the dilution was sprayed on the test plant. Three or five days after spraying, a sporangium suspension of Pseudoperonospora cubensis containing 1×10^3/ml were inoculated by spraying on test plants and then the plants were put for 16 hours in an incubation chamber (20° C. to 23° C.) to promote disease. Seven days after inoculation the disease severity of the test plants was observed and the effectiveness of test sample was judged. Tests were carried out using two plants for each test set and the disease severity of the test plants was judged in accordance with the following criteria. The preventive value was calculated from the degree of the disease severity.
0 (No lesion) 1 (Lesion area was not more than 40%) 2 ((Lesion area was 40%-80%) 3 (Lesion area was not less than 80%)
Preventive value=100{1−(n/N)} N=disease severity of untreated leaf, n=disease severity of the tested leaf
The test system of another assay is Peronospora parasitica. Nature of the assay: cabbage downy mildew, pot test: preventive effect. The conditions noted are these: inoculated 3 days after spraying.
The next assay has as its system Pythium aphanidermatum. The conditions noted are these: 10 ml soil drench, from germination rate after 2 weeks.
A further assay concerns Sphaerotheca fuligine. Nature of the assay: cucumber powdery mildew, pot test: preventive effect. The conditions noted are these: inoculated 3 days after spraying.

Consider one compound from patent publication US20110281807A1, “PLANT DISEASE CONTROL AGENT COMPRISING D-TAGATOSE AS ACTIVE INGREDIENT, AND PLANT DISEASE CONTROL METHOD” (NATIONAL UNIVERSITY CORPORATION KAGAWA UNIVERSITY, priority 2008, published 2011).

Read-outs that look alike come from different tables or passages of the source.

Experimental for Peronospora parasitica: Test plants (cabbage, variety: Shikidori) were seeded and grown until 4 leaves stage. […] Three days after spraying, a suspension containing condia of cucumber downy mildew (Peronospora parasitica) was inoculated by spraying on test plants. Seven days after inoculation the disease severity of the test plants was observed and the effectiveness of test sample was judged. Tests were carried out using two plants for each test set and the disease severity of test plants was judged in accordance with the following criteria. The preventive value was calculated from the degree of disease severity as in Example 1.
Experimental for Pythium aphanidermatum: Five seeds of test plants (cucumber, variety: Sagami hanpaku) were sowed in a pot (5×5 cm), which contains infested soil with Pythium aphanidermatum (mycelium 100 g/1 L soil) and the seeds were covered with the soil. […] After 2 weeks, the disease severity of the test plants was observed and the effectiveness of test sample was judged. Tests were carried out in triplicate using 5 plants for each test set and the preventive value was calculated from the germination rate.
Experimental for Pythium glaminicola: Four germinated rice seeds (variety: Koshihikari) were sowed in a pot (5×5 cm), which contains infected soil with Pythium glaminicola (mycelium 100 g/1 L soil). The pot was drenched with 10 ml of D-tagatose dilution and the seeds were covered with soil. After 2 weeks, the disease severity of the test plants per rice seedling in 25 cm^2 was observed and the effectiveness of test sample was judged. Tests were carried out in duplicate and the preventive value was calculated from percentage of onset area.
Experimental for Sphaerotheca fuligine: Test plants (cucumber, variety: Sagami-hanpaku) were seeded and grown until the one true leaf stage. D-tagatose was diluted to 5% and 1% with distilled water and then 10 ml of the dilution was sprayed on the test plant. Three days after spraying, a condia suspension of Sphaerotheca fuligine was inoculated by spraying on test plants. Seven days after inoculation the disease severity of the test plants was observed and the effectiveness of test sample was judged. Tests were carried out using two plants for each test set and the disease severity of the test plants was judged in accordance with the following criteria.

With `O=C[C@H](O)[C@@H](O)[C@H](O)[C@H](O)CO` [D-Glucose], the “Preventive value (control value)” value in assay [1] (5000 ppm sprayed after inoculation (curative)), in assay [1] (10000 ppm sprayed after inoculation (curative)) and in assay [1] (50000 ppm sprayed after inoculation (curative)) was 0.0 in each case. Besides, the Preventive value in the assay with Phytophthora infestans (50000 ppm spray) was found to be 0.0; with Phytophthora infestans (100000 ppm spray), 0.0; in assay [2] (10000 ppm) it was 0.0; in assay [2] (50000 ppm) it was 0.0; in the assay on Pythium glaminicola (10000 ppm), 3.0; in the assay with Pythium glaminicola (50000 ppm), 4.5. Also, the Preventive value with Peronospora parasitica (10000 ppm spray), in the assay with Peronospora parasitica (50000 ppm spray), with Pythium aphanidermatum (10000 ppm), with Pythium aphanidermatum (50000 ppm), in the assay with Sphaerotheca fuligine (10000 ppm spray) and in the assay with Sphaerotheca fuligine (50000 ppm spray) was 0.0 in each case. The “Preventive value (3 DAS)” value in assay [3] (5000 ppm spray), in assay [3] (10000 ppm spray) and in assay [3] (50000 ppm spray) was 0.0 in each case. Moreover, the “Preventive value (5 DAS)” value in assay [3] (5000 ppm spray), in assay [3] (10000 ppm spray) and in assay [3] (50000 ppm spray) was 0.0 in each case.
